The source of these data is patent US7608281B2, “Composition and use of RAR antagonists for promoting chondrogenesis” (T. Michael Underhill, priority 1999, dated 2009).

Entries after “also recorded” stand apart in the source; their conditions may differ.

The target of assay [1] is T1, RARγ (Homo sapiens, UniProt P13631).
T1 construct: expressed in transfected cells; host or cells: P19 embryonal carcinoma cells
T1 sequence (P13631 1-454): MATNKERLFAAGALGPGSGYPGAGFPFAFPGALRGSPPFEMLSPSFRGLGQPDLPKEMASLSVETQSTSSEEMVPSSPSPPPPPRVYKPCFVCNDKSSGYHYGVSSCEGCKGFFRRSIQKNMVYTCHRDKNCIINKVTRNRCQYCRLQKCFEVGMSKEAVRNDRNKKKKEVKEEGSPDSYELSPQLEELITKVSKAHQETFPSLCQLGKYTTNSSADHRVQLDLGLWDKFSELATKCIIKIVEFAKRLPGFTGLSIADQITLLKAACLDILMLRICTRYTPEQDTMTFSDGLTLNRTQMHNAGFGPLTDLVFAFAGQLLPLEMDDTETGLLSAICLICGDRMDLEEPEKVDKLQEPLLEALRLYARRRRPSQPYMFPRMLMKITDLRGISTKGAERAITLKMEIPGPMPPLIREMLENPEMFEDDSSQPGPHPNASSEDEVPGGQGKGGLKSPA
The experiment in a line: Transient transfection: inhibition of all-trans RA induction of RARE luciferase construct in P19 cells, RARγ. Format: cell-based. The conditions noted are these: 1 μM AGN194301, 100 nM all-trans RA. As to the method: (§1) The ability of AGN194301 to inhibit all-trans RA induction of an RARE containing luciferase construct was performed in P19 embryonal carcinoma cells as previously described with some modification (Underhill et al. (1994) Mol. Endo. 8, 274-285). P19 cells were seeded at a density of 1.5×10^4 cells/well in 6 well plates. […] Following transfection cells were washed and fresh media was added that contained 1×10^−7 M all-trans RA and various amounts of AGN194301. Twenty-four hours later cell extracts were prepared, and luciferase and β-galactosidase activity measured. Luciferase activity was normalized with β-galactosidase activity to control for differences in transfection efficiency.
(§2) RAR activity as used herein refers to the level of RA-induced transcriptional activity of the RARs. Micromass cultures were treated with the RARα-specific antagonist AGN194301 to examine whether inhibition of RARα activity stimulated cartilage formation. Addition of 1 μM AGN194301 to wild-type micromass cultures lead to a dramatic increase in nodule number with no apparent increase in nodule size as compared to untreated control cultures (FIG. 5G, J, M). […] To confirm that the concentrations utilized in these experiments inhibited RARα activity specifically, the level of RARα, RARβ and RARγ mediated RARE activation was measured with 100 nM all-trans RA in the presence of various concentrations of antagonist. […]

For assay [2], the system named is wild-type limb mesenchyme micromass cultures. In words: Cartilage nodule formation in wild-type limb bud micromass cultures (alcian blue staining). In kind it is cell-based, murine. How it is done: Micromass cultures were prepared from murine E11.25 to E11.75 fore and hind limb buds as previously described with the following modifications (Cash et al. (1997) J. Cell Biol. 136, 445-457). After proteolytic digestion cells were filtered through a Cell Sieve ([…], Falcon) to obtain a single cell suspension. Culture media (40% Dulbecco's modified Eagle's medium, 60% F12 was supplemented with fetal bovine serum to 10%, Gibco-BRL) was changed daily. […] Addition/removal experiments included either adding or removing supplemented media on the indicated culture day, 24 hours after culture initiation was considered day 1. To detect transgene-expressing cells, cultures were fixed stained as previously described, with magenta-gal (BioSynth International Inc.) being substituted for X-gal. This was followed by alcian blue staining for cartilage-specific glycosaminoglycans. Alcian blue staining of magenta-gal stained cultures turned the red precipitate to a purple color, this is a result of incubating magenta-gal stained cells at pH 1. This double-staining technique enables transgene-expressing cells to be localized with respect to alcian blue stained cartilage nodules.

Assay [3] has as its target T2, RARα (Homo sapiens, UniProt P10276).
T2 construct: expressed in transfected cells; host or cells: P19 embryonal carcinoma cells
T2 sequence (P10276 1-462): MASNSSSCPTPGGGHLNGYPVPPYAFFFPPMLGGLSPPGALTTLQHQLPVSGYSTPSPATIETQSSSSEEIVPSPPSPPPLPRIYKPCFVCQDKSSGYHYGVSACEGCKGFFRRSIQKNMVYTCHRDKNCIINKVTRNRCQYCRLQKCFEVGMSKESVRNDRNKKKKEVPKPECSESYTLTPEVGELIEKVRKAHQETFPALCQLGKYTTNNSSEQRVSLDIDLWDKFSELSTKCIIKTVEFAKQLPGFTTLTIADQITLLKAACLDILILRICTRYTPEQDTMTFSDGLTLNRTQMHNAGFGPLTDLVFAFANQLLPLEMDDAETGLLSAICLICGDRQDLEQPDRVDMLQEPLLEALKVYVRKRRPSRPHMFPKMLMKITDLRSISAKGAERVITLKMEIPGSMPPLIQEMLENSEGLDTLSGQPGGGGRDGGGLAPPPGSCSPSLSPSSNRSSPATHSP
In words: Transient transfection: inhibition of all-trans RA induction of RARE luciferase construct in P19 cells, RARα. In kind it is cell-based. As to conditions: 1 μM AGN194301, 100 nM all-trans RA. How it is done:
as §1, §2

Assay [4] has as its target T3, RARβ (Homo sapiens, UniProt P10826).
T3 construct: expressed in transfected cells; host or cells: P19 embryonal carcinoma cells
T3 sequence (P10826 1-455): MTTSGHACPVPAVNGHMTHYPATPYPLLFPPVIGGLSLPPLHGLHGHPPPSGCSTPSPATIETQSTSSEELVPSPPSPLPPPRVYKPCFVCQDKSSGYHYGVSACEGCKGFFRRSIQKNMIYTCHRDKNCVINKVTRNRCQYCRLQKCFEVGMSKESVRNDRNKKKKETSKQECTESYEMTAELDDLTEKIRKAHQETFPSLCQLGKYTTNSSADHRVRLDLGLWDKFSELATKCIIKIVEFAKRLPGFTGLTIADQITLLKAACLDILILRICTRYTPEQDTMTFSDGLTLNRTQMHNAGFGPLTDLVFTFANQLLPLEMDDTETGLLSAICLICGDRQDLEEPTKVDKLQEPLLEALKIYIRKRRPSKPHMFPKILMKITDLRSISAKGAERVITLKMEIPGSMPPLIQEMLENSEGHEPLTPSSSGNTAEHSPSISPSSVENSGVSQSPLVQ
The experiment in a line: Transient transfection: inhibition of all-trans RA induction of RARE luciferase construct in P19 cells, RARβ. The conditions noted are these: 1 μM AGN194301, 100 nM all-trans RA. In kind it is cell-based. As to the method: as §1, §2

Regarding `Cc1ccc(C2=CC(C)(C)Oc3c(Br)cc(C(=O)Nc4ccc(C(=O)O)c(F)c4)cc32)cc1` [AGN194301, 2-Fluoro-4-[(1-(8-bromo-2,2-dimethyl-4-(4-methylphenyl)-2-H-chromen-6-yl)-methanoyl)-amino]-benzoic acid], in assay [1], the “RARγ signaling (RARE activation) remaining” value is ~26 % of controls. For the same molecule, the “rescue of cartilage nodule formation in Noggin-treated cultures” value in assay [2] (1 μM AGN194301 + 10 ng/ml Noggin, day 6) is “resembled untreated cultures; also recorded: comparable to that of control cultures”. The “increase in number of cartilage nodules (more nodules than untreated cultures)” value in assay [2] (1 μM AGN194301, 8 days in culture, wild-type cultures, FIG. 5M) turned out to be 60%. The “RARα signaling (RARE activation) remaining” value in assay [3] is ~0.3 % of controls. In addition, the “RARβ signaling (RARE activation) remaining” value in assay [4] is recorded as ~18 % of controls.

B1: Noggin: purified Xenopus noggin protein, secreted inhibitor of BMP-2 and -4 (protein, UniProt P49011 20-222, looked up)
Noggin: RIDQGGCQHYLHIRPAPSENLPLVDLIEHPDPIYDPKEKDLNETLLRTLMVGHFDPNFMATILPEERLGVEDLGELDLLLRQKPSGAMPAEIKGLEFYEGLQSKKHRLSKKLRRKLQMWLWSQTFCPVLYTWNDLGTRFWPRYVKVGSCYSKRSCSVPEGMVCKAAKSMHLTILRWRCQRRVQQKCAWITIQYPVISECKCSC
Take B1: the “reduction of cartilage nodule formation in comparison to untreated controls” value in assay [2] (10 ng/ml Noggin, wild-type cultures) is given as around 84%. The “number of cartilage nodules relative to control cultures” value in assay [2] (Noggin alone 10 ng/ml, FIG. 6d) was ~10 % of that of control cultures.
